From paper PMC9264488, “Potentiation of endocannabinoids and other lipid amides prevents hyperalgesia and inflammation in a pre-clinical model of migraine” (The Journal of Headache and Pain, 2022)
Like-named read-outs stand apart in the source and are kept apart here.

Legend:
[1] = target: T1, fatty acid amide hydrolase (r-FAAH) (Rattus norvegicus, UniProt P97612); assay: biochemical
[2] = target: T1, fatty acid amide hydrolase (r-FAAH)

T1 sequence (P97612 whole entry): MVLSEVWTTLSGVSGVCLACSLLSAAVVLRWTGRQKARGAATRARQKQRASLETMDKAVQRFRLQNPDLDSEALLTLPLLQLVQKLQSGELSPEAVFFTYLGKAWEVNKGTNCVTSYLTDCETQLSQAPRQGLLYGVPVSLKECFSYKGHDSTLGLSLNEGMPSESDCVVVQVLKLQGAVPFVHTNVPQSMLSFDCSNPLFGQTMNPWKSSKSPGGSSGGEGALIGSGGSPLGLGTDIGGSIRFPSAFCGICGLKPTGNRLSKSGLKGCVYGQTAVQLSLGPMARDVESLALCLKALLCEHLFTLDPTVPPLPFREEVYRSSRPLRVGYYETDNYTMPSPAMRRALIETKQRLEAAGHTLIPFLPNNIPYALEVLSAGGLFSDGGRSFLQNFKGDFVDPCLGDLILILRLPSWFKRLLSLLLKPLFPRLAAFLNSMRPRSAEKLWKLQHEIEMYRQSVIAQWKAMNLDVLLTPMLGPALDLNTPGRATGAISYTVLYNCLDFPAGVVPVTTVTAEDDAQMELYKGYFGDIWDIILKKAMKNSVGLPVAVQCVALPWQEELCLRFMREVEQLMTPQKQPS

Row | Structure (SMILES) | IC50 [1] | IC50 [2]
1 | NC(=O)c1cccc(-c2cc(OC(=O)NC3CCCCC3)ccc2OC(F)F)c1 [ARN14280, [3-(3-carbamoylphenyl)-4-(difluoromethoxy)phenyl] N-cyclohexylcarbamate] | 1.5 ± 0.3 nM | –
2 | CNC(=O)c1cccc(-c2cc(OC(=O)NC3CCCCC3)ccc2F)c1 [ARN14633, [4-fluoro-3-[3-(methylcarbamoyl)phenyl]phenyl] N-cyclohexylcarbamate] | – | 1.4 ± 0.3 nM
